Results from patent US20260022118A1, “HETEROCYCLIC COMPOUNDS AS NRAS INHIBITORS” (Board of Regents, The University of Texas System, priority 2023, published 2026).

Legend:
[1] = test system: THP-1 cells expressing G12D (NRAS G12D); assay: Inhibition of NRAS G12D-mediated phosphorylation of ERK (AlphaLISA p-ERK1/2) in THP-1 cells; format: cell-based; settings: Homo sapiens, THP-1, 2 h, 2 hours incubation, HBSS with 0% or 10% FBS, p-ERK1/2 (Thr202/Tyr204) AlphaLISA, read-out: pERK THP-1 IC50
In short: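 THP-1 cells expressing NRAS G12D, seeded in HBSS with 0% or 10% FBS, were exposed to test compound (1% DMSO final) for 2 h. p-ERK1/2 (Thr202/Tyr204) read by AlphaLISA SureFire Ultra. IC50 from curves normalized to no-inhibitor (100%) and 1 μM trametinib (0%) controls.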

NRAS G12D C118S = NRAS G12D C118S (Homo sapiens (Human), UniProt P01111, C118S/G12D); assay: NRas G12D Surface Plasmon Resonance (SPR) binding assay; settings: Avi-tagged biotinylated NRAS G12D C118S on streptavidin chip, 25° C., 1:1 kinetic or steady-state fit
Chain of NRAS G12D C118S (P01111 whole entry G12D/C118S): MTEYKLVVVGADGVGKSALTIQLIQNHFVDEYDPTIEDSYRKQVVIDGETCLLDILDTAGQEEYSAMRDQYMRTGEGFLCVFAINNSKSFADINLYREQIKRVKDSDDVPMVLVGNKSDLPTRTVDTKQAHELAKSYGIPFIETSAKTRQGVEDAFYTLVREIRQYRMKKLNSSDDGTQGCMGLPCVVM
In short: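 Biotinylated Avi-tagged NRAS G12D C118S was captured at about 600 RU on a streptavidin chip alongside a blank reference channel. Compounds were run as 10-point 1:3 dilution series in HBS-P+ pH 7.4 with 5 mM MgCl2 and 3% DMSO, using a 2–4% DMSO solvent correction. A control compound at 10 μM was injected periodically to check protein activity.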

Compound	IC50 [1]	Kd (NRAS G12D C118S)
C#Cc1c(F)ccc2cc(O)cc(-c3nc(OC4CCC4)c4c([C@H]5[C@@H]6CNC[C@@H]65)nn(C5CC5)c4c3F)c12 [Example 64, 4-(3-((1R,5S,6r)-3-azabicyclo[3.1.0]hexan-6-yl)-4-cyclobutoxy-1-cyclopropyl-7-fluoro-1H-pyrazolo[4,3-c]pyridin-6-yl)-5-ethynyl-6-fluoronaphthalen-2-ol]	480 nM	24.3 nM
C#Cc1c(F)ccc2cc(O)cc(-c3nc(OC4CCCC4)c4c([C@H]5[C@@H]6CNC[C@@H]65)nn(C5CC5)c4c3F)c12 [Example 65, 4-(3-((1R,5S,6r)-3-azabicyclo[3.1.0]hexan-6-yl)-4-(cyclopentyloxy)-1-cyclopropyl-7-fluoro-1H-pyrazolo[4,3-c]pyridin-6-yl)-5-ethynyl-6-fluoronaphthalen-2-ol]	1060 nM	125 nM
C#Cc1c(F)ccc2cc(O)cc(-c3nc(OC(F)F)c4c([C@H]5[C@@H]6CNC[C@@H]65)nn(C5CC5)c4c3F)c12 [Example 66, 4-(3-((1R,5S,6r)-3-azabicyclo[3.1.0]hexan-6-yl)-1-cyclopropyl-4-(difluoromethoxy)-7-fluoro-1H-pyrazolo[4,3-c]pyridin-6-yl)-5-ethynyl-6-fluoronaphthalen-2-ol]	1190 nM	114 nM
C#Cc1c(F)ccc2cc(O)cc(-c3nc(OCC(F)(F)F)c4c([C@H]5[C@@H]6CNC[C@@H]65)nn(C5CC5)c4c3F)c12 [Example 67, 4-(3-((1R,5S,6r)-3-azabicyclo[3.1.0]hexan-6-yl)-1-cyclopropyl-7-fluoro-4-(2,2,2-trifluoroethoxy)-1H-pyrazolo[4,3-c]pyridin-6-yl)-5-ethynyl-6-fluoronaphthalen-2-ol]	763 nM	114 nM
C#Cc1c(F)ccc2cc(O)cc(-c3nc(OC4CC(F)(F)C4)c4c([C@H]5[C@@H]6CNC[C@@H]65)nn(C5CC5)c4c3F)c12 [Example 68, 4-(3-((1R,5S,6r)-3-azabicyclo[3.1.0]hexan-6-yl)-1-cyclopropyl-4-(3,3-difluorocyclobutoxy)-7-fluoro-1H-pyrazolo[4,3-c]pyridin-6-yl)-5-ethynyl-6-fluoronaphthalen-2-ol]	2130 nM	566 nM
C#Cc1c(F)ccc2cc(O)cc(-c3nc(OC4CNC4)c4c([C@H]5[C@@H]6CNC[C@@H]65)nn(C5CC5)c4c3F)c12 [Example 69, 4-(4-(azetidin-3-yloxy)-3-((1R,5S,6r)-3-azabicyclo[3.1.0]hexan-6-yl)-1-cyclopropyl-7-fluoro-1H-pyrazolo[4,3-c]pyridin-6-yl)-5-ethynyl-6-fluoronaphthalen-2-ol]	> 10000 nM	1790 nM
C#Cc1c(F)ccc2cc(O)cc(-c3nc(C(C)C)c4c([C@H]5[C@@H]6CNC[C@@H]65)nn(C5CC5)c4c3F)c12 [Example 74, 4-(3-((1R,5S,6r)-3-azabicyclo[3.1.0]hexan-6-yl)-1-cyclopropyl-7-fluoro-4-isopropyl-1H-pyrazolo[4,3-c]pyridin-6-yl)-5-ethynyl-6-fluoronaphthalen-2-ol]	9.56 nM	0.141 nM
C#Cc1c(F)ccc2cc(O)cc(-c3nc(N(C)C(C)C)c4c([C@H]5[C@@H]6CNC[C@@H]65)nn(C5CC5)c4c3F)c12 [Example 75, 4-(3-((1R,5S,6r)-3-azabicyclo[3.1.0]hexan-6-yl)-1-cyclopropyl-7-fluoro-4-(isopropyl(methyl)amino)-1H-pyrazolo[4,3-c]pyridin-6-yl)-5-ethynyl-6-fluoronaphthalen-2-ol]	248 nM	25 nM
C#Cc1c(F)ccc2cc(O)cc(-c3nc(NC)c4c([C@H]5[C@@H]6CNC[C@@H]65)nn(C5CC5)c4c3F)c12 [Example 76, 4-(3-((1R,5S,6r)-3-azabicyclo[3.1.0]hexan-6-yl)-1-cyclopropyl-7-fluoro-4-(methylamino)-1H-pyrazolo[4,3-c]pyridin-6-yl)-5-ethynyl-6-fluoronaphthalen-2-ol]	547 nM	28.3 nM
C#Cc1c(F)ccc2cc(O)cc(-c3nc(NC(C)C)c4c([C@H]5[C@@H]6CNC[C@@H]65)nn(C5CC5)c4c3F)c12 [Example 77, 4-(3-((1R,5S,6r)-3-azabicyclo[3.1.0]hexan-6-yl)-1-cyclopropyl-7-fluoro-4-(isopropylamino)-1H-pyrazolo[4,3-c]pyridin-6-yl)-5-ethynyl-6-fluoronaphthalen-2-ol]	258 nM	17.9 nM
C#Cc1c(F)ccc2cc(O)cc(-c3nc(Nc4ccccc4)c4c([C@H]5[C@@H]6CNC[C@@H]65)nn(C5CC5)c4c3F)c12 [Example 83, 4-(3-((1R,5S,6r)-3-azabicyclo[3.1.0]hexan-6-yl)-1-cyclopropyl-7-fluoro-4-(phenylamino)-1H-pyrazolo[4,3-c]pyridin-6-yl)-5-ethynyl-6-fluoronaphthalen-2-ol]	205 nM	49.5 nM
C#Cc1c(F)ccc2cc(O)cc(-c3ncc4c(N5CC6CCC(C5)N6)cn(C5CC5)c4c3F)c12 [Example 85, 4-(3-(3,8-diazabicyclo[3.2.1]octan-3-yl)-1-cyclopropyl-7-fluoro-1H-pyrrolo[3,2-c]pyridin-6-yl)-5-ethynyl-6-fluoronaphthalen-2-ol]	1710 nM	336 nM
C#Cc1c(F)ccc2cc(O)cc(-c3ncc4c([C@H]5[C@@H]6CNC(C(=O)OC)[C@@H]65)nn(C)c4c3F)c12 (stereo partly drawn) [Example 96, methyl (1S,5R,6S)-6-(6-(8-ethynyl-7-fluoro-3-hydroxynaphthalen-1-yl)-7-fluoro-1-methyl-1H-pyrazolo[4,3-c]pyridin-3-yl)-3-azabicyclo[3.1.0]hexane-2-carboxylate]	360 nM	904 nM
C#Cc1c(F)ccc2cc(O)cc(-c3ncc4c([C@H]5[C@@H]6CNC(CO)[C@@H]65)nn(C)c4c3F)c12 (stereo partly drawn) [Example 97, 5-ethynyl-6-fluoro-4-(7-fluoro-3-((1S,5R,6S)-2-(hydroxymethyl)-3-azabicyclo[3.1.0]hexan-6-yl)-1-methyl-1H-pyrazolo[4,3-c]pyridin-6-yl)naphthalen-2-ol]	2220 nM	190 nM

Second part, the compound after the results:

IC50 [1]	Kd (NRAS G12D C118S)	Compound
185 nM	8.29 nM	C#Cc1c(F)ccc2cc(O)cc(-c3nc(OCC)c4c([C@H]5[C@@H]6CNC[C@@H]65)nn(C5CC5)c4c3F)c12 [Example 63, 4-(3-((1R,5S,6r)-3-azabicyclo[3.1.0]hexan-6-yl)-1-cyclopropyl-4-ethoxy-7-fluoro-1H-pyrazolo[4,3-c]pyridin-6-yl)-5-ethynyl-6-fluoronaphthalen-2-ol]
169 nM	33.3 nM	C#Cc1c(F)ccc2cc(O)cc(-c3nc(OC4CC4)c4c([C@H]5[C@@H]6CNC[C@@H]65)nn(C5CC5)c4c3F)c12 [Example 70, 4-(3-((1R,5S,6r)-3-azabicyclo[3.1.0]hexan-6-yl)-4-cyclopropoxy-1-cyclopropyl-7-fluoro-1H-pyrazolo[4,3-c]pyridin-6-yl)-5-ethynyl-6-fluoronaphthalen-2-ol]
24.4 nM	0.594 nM	C#Cc1c(F)ccc2cc(O)cc(-c3nc(CC)c4c([C@H]5[C@@H]6CNC[C@@H]65)nn(C5CC5)c4c3F)c12 [Example 72, 4-(3-((1R,5S,6r)-3-azabicyclo[3.1.0]hexan-6-yl)-1-cyclopropyl-4-ethyl-7-fluoro-1H-pyrazolo[4,3-c]pyridin-6-yl)-5-ethynyl-6-fluoronaphthalen-2-ol]
1300 nM	212 nM	C#Cc1c(F)ccc2cc(O)cc(-c3nc(CC(C)C)c4c([C@H]5[C@@H]6CNC[C@@H]65)nn(C5CC5)c4c3F)c12 [Example 73, 4-(3-((1R,5S,6r)-3-azabicyclo[3.1.0]hexan-6-yl)-1-cyclopropyl-7-fluoro-4-isobutyl-1H-pyrazolo[4,3-c]pyridin-6-yl)-5-ethynyl-6-fluoronaphthalen-2-ol]
767 nM	151 nM	C#Cc1c(F)ccc2cc(O)cc(-c3ncc4c(N5C[C@@H]6CC[C@H]5CN6)cn(C5CC5)c4c3F)c12 [Example 86, 4-(3-((1S,4S)-2,5-diazabicyclo[2.2.2]octan-2-yl)-1-cyclopropyl-7-fluoro-1H-pyrrolo[3,2-c]pyridin-6-yl)-5-ethynyl-6-fluoronaphthalen-2-ol]
227 nM	4.58 nM	C#Cc1c(F)ccc2cc(N)cc(-c3nc(CC)c4c([C@H]5[C@@H]6CNC[C@@H]65)nn(C5CC5)c4c3F)c12 [Example 88, 4-(3-((1R,5S,6r)-3-azabicyclo[3.1.0]hexan-6-yl)-1-cyclopropyl-4-ethyl-7-fluoro-1H-pyrazolo[4,3-c]pyridin-6-yl)-5-ethynyl-6-fluoronaphthalen-2-amine]
888 nM	107 nM	C#Cc1c(F)ccc2cc(O)cc(-c3nc(CC)c4c(N5C[C@@H]6CC[C@H]5CN6)nn(C5CC5)c4c3F)c12 [Example 90, 4-(3-((1S,4S)-2,5-diazabicyclo[2.2.2]octan-2-yl)-1-cyclopropyl-4-ethyl-7-fluoro-1H-pyrazolo[4,3-c]pyridin-6-yl)-5-ethynyl-6-fluoronaphthalen-2-ol]
1650 nM	146 nM	C#Cc1c(F)ccc2cc(O)cc(-c3nc(OC)c4c(N5C[C@@H]6CC[C@H]5CN6)nn(C5CC5)c4c3F)c12 [Example 91, 4-(3-((1S,4S)-2,5-diazabicyclo[2.2.2]octan-2-yl)-1-cyclopropyl-7-fluoro-4-methoxy-1H-pyrazolo[4,3-c]pyridin-6-yl)-5-ethynyl-6-fluoronaphthalen-2-ol]
